The values that follow come from article PMC4795001 (Chemical communications (Cambridge, England), 2015).

One assay concerns the target T1, holo-GrsA (recombinant) (Aneurinibacillus migulanus, UniProt P0C061).
T1 sequence (P0C061 1-1098): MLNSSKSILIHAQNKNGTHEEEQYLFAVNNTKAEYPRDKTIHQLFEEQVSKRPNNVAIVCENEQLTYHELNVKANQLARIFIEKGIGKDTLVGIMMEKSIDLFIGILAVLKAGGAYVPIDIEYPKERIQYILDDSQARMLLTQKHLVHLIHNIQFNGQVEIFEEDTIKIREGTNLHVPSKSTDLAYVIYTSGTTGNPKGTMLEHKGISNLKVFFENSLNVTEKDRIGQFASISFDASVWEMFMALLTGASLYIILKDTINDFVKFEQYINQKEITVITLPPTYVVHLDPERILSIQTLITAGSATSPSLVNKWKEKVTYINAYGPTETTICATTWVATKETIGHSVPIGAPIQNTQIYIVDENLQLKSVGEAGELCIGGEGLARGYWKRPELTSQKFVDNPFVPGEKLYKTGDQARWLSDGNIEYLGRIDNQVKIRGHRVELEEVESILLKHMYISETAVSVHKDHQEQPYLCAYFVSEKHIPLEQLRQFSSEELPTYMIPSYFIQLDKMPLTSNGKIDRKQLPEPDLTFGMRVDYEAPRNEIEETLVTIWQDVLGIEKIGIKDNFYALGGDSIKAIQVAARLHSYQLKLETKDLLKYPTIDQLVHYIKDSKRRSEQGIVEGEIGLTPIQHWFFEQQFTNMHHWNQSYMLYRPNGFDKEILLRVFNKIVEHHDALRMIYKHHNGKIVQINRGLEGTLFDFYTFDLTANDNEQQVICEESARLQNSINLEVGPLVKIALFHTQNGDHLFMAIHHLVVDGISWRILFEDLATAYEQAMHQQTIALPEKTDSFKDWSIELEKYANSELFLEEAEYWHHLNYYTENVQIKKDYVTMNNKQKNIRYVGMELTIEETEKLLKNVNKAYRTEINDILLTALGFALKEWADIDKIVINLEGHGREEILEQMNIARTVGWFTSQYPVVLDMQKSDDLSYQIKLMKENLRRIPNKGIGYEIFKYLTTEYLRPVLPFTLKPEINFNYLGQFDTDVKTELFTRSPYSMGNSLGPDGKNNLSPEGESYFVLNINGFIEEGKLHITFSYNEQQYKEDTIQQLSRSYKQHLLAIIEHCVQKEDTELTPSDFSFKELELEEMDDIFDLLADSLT
Kind of assay: coupled hydroxamate-MesG continuous spectrophotometric assay. Type of assay: biochemical. To be noted: read-out: Ki^app; tight-binding; A domain active site.

For the next assay, the target named is T2, holo-TycB1 (recombinant) (Brevibacillus parabrevis, UniProt O30408).
T2 sequence (O30408 1-1080 limits assumed): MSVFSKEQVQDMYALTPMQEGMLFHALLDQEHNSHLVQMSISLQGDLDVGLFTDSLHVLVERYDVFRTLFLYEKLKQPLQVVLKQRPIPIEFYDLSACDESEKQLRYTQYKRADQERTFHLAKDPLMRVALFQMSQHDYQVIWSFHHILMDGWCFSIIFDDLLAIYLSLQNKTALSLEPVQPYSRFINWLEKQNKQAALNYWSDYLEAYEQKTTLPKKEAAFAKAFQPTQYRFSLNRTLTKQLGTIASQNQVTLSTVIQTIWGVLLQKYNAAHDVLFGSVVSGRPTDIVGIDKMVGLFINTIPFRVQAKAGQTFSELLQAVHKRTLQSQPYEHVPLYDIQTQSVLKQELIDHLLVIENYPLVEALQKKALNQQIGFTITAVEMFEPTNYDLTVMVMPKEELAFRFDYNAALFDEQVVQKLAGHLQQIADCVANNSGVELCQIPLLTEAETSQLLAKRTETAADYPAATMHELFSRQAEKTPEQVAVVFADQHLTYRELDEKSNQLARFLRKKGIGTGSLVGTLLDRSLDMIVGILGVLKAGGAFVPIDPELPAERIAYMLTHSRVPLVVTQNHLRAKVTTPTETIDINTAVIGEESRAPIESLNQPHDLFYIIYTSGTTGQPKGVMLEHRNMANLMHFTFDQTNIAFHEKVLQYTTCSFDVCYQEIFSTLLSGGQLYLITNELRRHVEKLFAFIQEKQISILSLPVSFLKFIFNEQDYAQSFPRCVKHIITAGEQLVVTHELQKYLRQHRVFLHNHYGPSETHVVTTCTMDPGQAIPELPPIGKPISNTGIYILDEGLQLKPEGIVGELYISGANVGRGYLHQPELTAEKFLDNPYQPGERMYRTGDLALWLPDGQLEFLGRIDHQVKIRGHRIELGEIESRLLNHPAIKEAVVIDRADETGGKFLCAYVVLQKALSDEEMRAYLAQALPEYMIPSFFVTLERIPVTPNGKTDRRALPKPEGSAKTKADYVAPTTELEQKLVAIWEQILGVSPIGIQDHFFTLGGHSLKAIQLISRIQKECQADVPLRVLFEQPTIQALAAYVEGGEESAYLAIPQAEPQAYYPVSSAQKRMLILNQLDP
The assay is described as above. The format is biochemical.

Like-named read-outs stand apart in the source and are kept apart here.

In the case of L-Phe-AMS-BPyne [compound 1], the Ki at holo-GrsA (recombinant) was 1.43 ± 0.19 nM. In the case of `Nc1ncnc2c1ncn2[C@@H]1O[C@H](COS(=O)(=O)NC(=O)[C@@H]2CCCN2)[C@@H](O)[C@H]1O` [compound 5, L-Pro-AMS], the Ki on holo-TycB1 (recombinant) turned out to be 431 ± 42 nM. Take L-Pro-AMS-BPyne [compound 2]: the Ki at holo-TycB1 (recombinant) (read-out: Ki^app, tight-binding, A domain active site) was found to be 327 ± 17 nM.
